Assay in all cases: growth of human tumour cells (NCI), 48 h
Test [1] deals with SF-539 CNS.
For test [2], the system named is MCF7 breast.
Test [3] relates to NCI/ADR-RES ovarian.
The subject of test [4] is CAKI-1 renal.
Test [5] has as its system OVCAR-5 ovarian.
In test [6] the test system is NCI-H226 lung.
The subject of test [7] is A498 renal.
The subject of test [8] is SW-620 colon.
Test [9] deals with CCRF-CEM leukemia.
The subject of test [10] is HL-60(TB) leukemia.

Molecules are shown by their SMILES.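 Method: 48-hour compound exposure of cells in 96-well plates, five concentrations, linear interpolation of endpoints. GI50 marks 50% less growth. At the TGI there is no net growth.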

Turning to `COC(=O)[C@@H]1[C@H](O)CCC2=C(CC(=O)c3ccoc3)[C@H](C)CC[C@]21C`, the TGI in test [1], in test [2], in test [3], in test [4], in test [5] and in [6] was more than 50 µM each time. The TGI in test [7] and in test [8] was more than 50 µM each time.
With `O=C(NC12CC3CC(CC(C3)C1)C2)C(=O)c1c[nH]c2ccc(Br)cc12`, the TGI in test [1] is 51.3 µM; in [4] it was more than 100 µM; in [5], more than 100 µM; in test [9], more than 100 µM; in [10], more than 100 µM; in test [6], 41.8 µM. The compound further gave a TGI in test [8] of more than 100 µM.
For the compound `COc1cc(N)c2[nH]c3c(C)ccc(C)c3c2c1`, the TGI in test [1], in test [4], in test [5], in [9], in test [10] and in test [6] was more than 100 µM each time. Moreover, the TGI in [8] was more than 100 µM.
For the compound `N/C(=N\S(=O)(=O)c1ccc(-c2ccccn2)s1)Nc1ccc(Cl)cc1`, the TGI came out at 29.7 µM in test [1]; 34.4 µM in [2]; 43.5 µM in test [3]; 24.9 µM in [4]; 40.2 µM in [5]; 35.8 µM in test [6]. Besides, the TGI in test [7] amounted to 25.8 µM; in [8] it was 45.1 µM.
Regarding `CCNC(=O)NNc1ncnc2c1c(-c1ccc(Cl)cc1)cn2-c1ccc(C)cc1`, the TGI in test [1] was 33.2 µM; in test [3], 38.4 µM; in test [4], 51.1 µM; in [5], 33.5 µM; in test [9], 43.1 µM; in [10], 34.7 µM. Also, the TGI in test [6] is 37.9 µM; in [7], 30.6 µM; in test [8] it was 45 µM.
For `O=C(/C=C/c1ccc2c(c1)OCO2)NCCc1ccco1`, the TGI in [1], in [2], in test [3], in [4], in test [5] and in test [9] was more than 100 µM each time. Further, the TGI in test [6] and in test [8] was more than 100 µM in each case.
`Cn1c(=O)c2c(nc3n2CCC(=O)N3CCCCl)n(C)c1=O`: the TGI in [3], in test [5], in test [9], in test [10], in test [6] and in test [7] was more than 100 µM in each case. Moreover, in [8], the TGI was more than 100 µM.
Take `CCCCOc1c(C(=O)O)cc(Br)cc1C(=O)O`: the TGI in test [1], in test [2], in test [3], in test [4], in test [5] and in test [6] was more than 100 µM each time. For the same compound, the TGI in [7] and in test [8] was more than 100 µM in each case.
On to `CCCCC(=C=C(C)CO)C1CCCN1C(=O)OC(C)(C)C` (stereo not given), for which the TGI in test [1] was found to be 34.5 µM; in test [2] it was 43.5 µM; in test [3], 42.5 µM; in [4] it was 61.5 µM; in test [5] it was 39.9 µM; in [9], 33.2 µM. The TGI is 32.5 µM in test [10], 33.9 µM in test [6] and 89.8 µM in test [8].
With `N#CNC(=NCc1ccccc1)NCCc1c[nH]c2ccccc12`, the TGI in [1], in test [5], in test [9], in test [10], in test [6] and in [8] was more than 100 µM each time.
For `Cc1nc(N)sc1C(=O)Nc1ncn[nH]1`, the TGI is more than 100 µM in test [1]; more than 100 µM in test [2]; more than 100 µM in test [3]; more than 100 µM in test [4]; more than 100 µM in test [5]; 49.9 µM in test [10]. Further, the TGI in [6] and in test [8] was more than 100 µM in each case.
As to `C[C@@H](NC(=O)[C@@H]1C[C@]1(C)CO)c1cccc2ccccc12`, the TGI in [2], in test [3], in test [4], in [5], in test [9] and in test [6] was more than 100 µM throughout. Moreover, the TGI in [7] and in test [8] was more than 100 µM in each case.
As for `Cn1cc(-c2nc(-c3c[nH]c4ccncc34)cs2)c2ccccc21`, the GI50 in [1] is 1.78 µM; in test [3] it was 1.99 µM; in test [4] it was 1.48 µM; in test [5] it was 1.76 µM; in [7], 1.86 µM. In addition, the TGI stood at 3.26 µM in [1]; 4.02 µM in test [3]; 2.85 µM in test [4]; 3.18 µM in test [5]; 3.3 µM in test [7].
Turning to `Cc1c(OCCCOc2ccc3c(=O)cc(-c4ccccc4)oc3c2C)ccc2c(=O)cc(-c3ccccc3)oc12`, the TGI in test [1], in test [4], in test [5], in test [9], in [10] and in test [7] was more than 100 µM throughout. The TGI in test [8] is more than 100 µM.
With `NC(=O)COc1c(Br)cc(Br)cc1Br`, the TGI in test [1], in test [4], in [5], in test [9] and in test [6] was more than 100 µM each time.
On to `CC(=O)Oc1c2c(c(OC(C)=O)c3c1n(C(C)=O)c1ccccc1n3C(C)=O)n(C(C)=O)c1ccccc1n2C(C)=O`, for which the TGI in test [1] is 30.8 µM; in test [4], 55.1 µM; in test [9], 15.6 µM; in [10], 6.1 µM; in [7] it was 39 µM; in test [8], 5.67 µM.
Regarding `COC1=CC(=O)C2C(C1=O)[C@@H]1c3ccccc3OC(C)(C)[C@H]21` (stereo not given in full), the TGI in [1] is 58.3 µM; in test [4], 31 µM; in test [5], more than 100 µM; in test [9], 65.1 µM; in [10], 33.8 µM; in [6], 54.7 µM. In addition, the TGI in test [7] was more than 100 µM; in [8], 48 µM.
Regarding `O=C(CNc1nccs1)Nn1cnc2ccc(S(=O)(=O)Nc3nccs3)cc2c1=O`, the TGI in test [1], in test [2], in test [3], in [4], in test [5] and in test [9] was more than 100 µM each time. Further, the TGI in [10], in [6] and in test [8] was more than 100 µM each time.
Turning to `Cc1ccc2n(c1)cc(-c1ccc(/C=N/NC(=N)N/N=C/c3ccc(-c4cn5cc(C)ccc5[n+]4C)cc3)cc1)[n+]2C`, the TGI in test [1], in test [2], in test [3], in [5], in test [9] and in test [10] was more than 100 µM in each case. Also, the TGI in test [8] is more than 100 µM.
As to `CCOC(=O)CCC(NC(=O)c1ccc(Nc2nc3cc(C(F)(F)F)ccc3nc2C(=O)OCC)cc1)C(=O)OCC` (stereo not given), the TGI in test [1] was 25.2 µM; in [3] it was 29.7 µM; in test [5], 39.5 µM; in test [9], more than 100 µM; in [10], more than 100 µM; in test [8], 81.6 µM.
Consider `N=S(=O)(c1ccccc1)c1ccccc1`, for which the TGI in [1], in test [4], in [5], in [9], in test [10] and in test [6] was more than 100 µM each time. The TGI in [7] and in test [8] was more than 100 µM throughout.
For `CCCc1n[nH]c(=O)n1N1C(=O)C=CC1=O`, the TGI in test [1], in [2], in test [4], in test [5], in [9] and in test [7] was more than 100 µM in each case.
On to `Cc1cc(Br)cc(C)c1NC(=O)C(=O)C(C(=O)c1ccncc1)C1OC(=O)c2ccccc21` (stereo not given), for which the TGI in [4], in [5], in [9], in [10], in test [6] and in test [7] was more than 100 µM each time. In test [8], this compound displayed a TGI of more than 100 µM.
For the compound `Nc1ccc2nc(Nc3ccc(Cl)c(Cl)c3)cnc2c1`, the TGI in test [1] is 64.5 µM; in [4] it was more than 100 µM; in test [5], 46.8 µM; in [9], 9.57 µM; in test [10] it was 31.6 µM; in test [6], 41.8 µM. This compound also showed a TGI in test [8] of 33.7 µM.
With `Nc1ncnc2c1sc(=S)n2-c1ccccc1`, the TGI in test [1], in [4], in [5], in test [9], in [10] and in test [6] was more than 100 µM each time. For the same compound, the TGI in [7] and in test [8] was more than 100 µM throughout.
Regarding `C[N+](C)=c1ccc2nc3c(ccc4ccccc43)oc-2c1`, the TGI in test [1] amounted to 32.2 µM; in test [4], 28.9 µM; in test [5], 37 µM; in test [9] it was 8.53 µM; in [10], 6.32 µM; in [6], 33.5 µM. For the same compound, the TGI in test [7] worked out at 32.6 µM; in [8] it was 10.5 µM.
Consider `c1ccc2[nH]c3c(N=NC4=NCCN4)c4ccccc4c-3nc2c1`, for which the TGI in [1] is 20.2 µM; in test [2], 11.4 µM; in test [3], 20.1 µM; in test [9], more than 100 µM; in test [10], more than 100 µM; in test [6], 23.7 µM. This compound showed a TGI in test [8] of 13.6 µM.
In the case of `O=C(/C=C/c1ccc(OCc2ccccc2)cc1)NCc1ccc(C(=O)NCc2ccccc2)cc1`, the TGI in test [1], in test [2], in test [3], in [4], in test [5] and in test [9] was more than 100 µM each time. The TGI in test [6], in test [7] and in test [8] was more than 100 µM throughout.
With `CCOP(=O)(OCC)/C(C#N)=C\c1ccsc1`, the TGI in test [1], in test [4], in test [5], in [6] and in test [8] was more than 100 µM each time.
For `C=C1C2C[C@@H]3OC4CC5O[C@]6(CC5OC4C(C)C3OC(=O)CC3CC[C@@H]4OC5C7OC8C[C@](CCC9CC(=C)[C@H](CCC(C[C@H]1C)O2)O9)(OC7C4O3)O[C@@H]85)C[C@@H]1O[C@@]2(CC(C)[C@@H]3OC(CC(=O)CCO)C(O)C[C@@H]3O2)CC(C)[C@@H]1O6` (stereo not given in full), the TGI in test [1] is less than 0.001 µM; in test [4], 0.877 µM; in test [5], 0.562 µM; in test [9] it was 1.8 µM; in test [6], less than 0.001 µM; in [8], 1.32 µM.
As for `COc1ccc(C2S/C(=C\c3cccc(OC)c3)C(=O)N2NC(=O)Cc2ccccc2)cc1` (stereo not given), the TGI in test [1], in [4], in test [5], in test [9], in test [10] and in test [6] was more than 100 µM in each case. The TGI in test [7] and in test [8] was more than 100 µM in each case.
As to `CC(=O)NNc1nc(C)c(C(/C=C/c2ccc([N+](=O)[O-])cc2)=N/NC(N)=O)s1`, the TGI in test [1], in test [2], in [3], in [4], in [5] and in test [9] was more than 100 µM each time. Besides, the TGI in test [6], in [7] and in [8] was more than 100 µM each time.
In the case of `Brc1c2nc3ccccc3nc2n2ccc3ccccc3c12`, the TGI in test [1], in test [4], in [5], in [9], in [10] and in test [8] was more than 100 µM throughout.

Source of the values: PubChem BioAssay (NCI).
